The record followed here is patent US12421254B2, “KRAS modulators and uses thereof” (Quanta Therapeutics, Inc., priority 2023, dated 2025).

As usually defined, the IC50 is the concentration at which inhibition is half-maximal.

Assay [1] has as its target GST-tagged KRAS-G12D (2-169) (Homo sapiens, UniProt P01116, G12D). Nature of the assay: Nucleotide exchange assay (NEA), SOS-mediated, HTRF, KRAS G12D. Format: biochemical. The note with it: Table 4; IC50 extracted at 30 min; 20 nM SOScat; read-out: NEA G12D IC50. The source says:
(§1) This activity is tightly regulated by GTPase activating proteins (GAPs) and guanine nucleotide exchange factors (GEFs). GEFs, such as SOS1/2, activate Ras proteins by exchanging GDP for GTP, thus returning Ras to its active conformation (Simanshu, Nissley, & McCormick, 2017). […] Homogenous time resolved fluorescence (HTRF) was used to detect SOS-mediated binding of a fluorescent GTP analog, GTP-DY-647P1 (Jena Biosciences NU-820-647P1) to GST-tagged KRAS-G12D (2-169) or to GST-tagged KRAS-G12V (2-169, Reaction Biology, MSC-11-540).
(§2) GST-tagged KRAS-G12D (2-169) and anti-GST MAb Tb Cryptate Gold (CisBio 61GSTTLB) were diluted into assay buffer (20 mM HEPES, pH 7.3, 150 mM NaCl, 5 mM MgCl2, 0.05% BSA 0.0025% NP40, 1 mM DTT) to prepare a 2.5× donor solution. 5× compound was added to the protein mixture and incubated for 1 h at RT. 2.5× acceptor solution containing SOS1cat (564-1049, Reaction Biology MSC-11-502) and GTP-DY-647P1 were then added to the donor KRAS mixture such that the final concentration of the reaction contained 0.25 nM GST-tagged KRAS-G12D (2-169), 20 nM SOScat, and 150 nM GTP-DY-647P1. The reaction was monitored using at RT with the Envision multimode plate reader (Ex/Em 337/665, […]) up to 90 minutes at 5 minute intervals. To monitor KRAS-G12V SOS-mediated nucleotide exchange, 80 nM SOS was added to reaction instead of 20 nM. All other components were the same as previously described. Data was blanked to reactions without SOS1 and % inhibition was calculated such that DMSO only =0% and blank=100%. Curve fitting was done using a 4 parameter fit. Reported IC50 values were extracted at 30 min and 90 min for the KRAS-G12D and KRAS-G12V assays, respectively.
NEA KRAS G12D IC50 (uM) values of selected compounds are depicted in Table 2 with compounds having a value <0.01 uM as ++++; ≥0.01 uM to 0.1 uM as +++; ≥0.1 uM to 1 uM as ++; ≥1 uM to 20 uM as +; and ≥20 uM as NA.

Assay [2] concerns the target GST-tagged KRAS-G12V (2-169) (Homo sapiens, UniProt P01116, G12V). Kind of assay: Nucleotide exchange assay (NEA), SOS-mediated, HTRF, KRAS G12V. The class given is biochemical. The conditions noted are these: Table 4; IC50 extracted at 90 min; 80 nM SOS.
Source text: as §1, §2
In general terms: In TR-FRET formats the signal depends on donor and acceptor labels being close together.

GST-tagged KRAS-G12V (2-169), sequence (P01116 2-169 isoform P01116-2 G12V): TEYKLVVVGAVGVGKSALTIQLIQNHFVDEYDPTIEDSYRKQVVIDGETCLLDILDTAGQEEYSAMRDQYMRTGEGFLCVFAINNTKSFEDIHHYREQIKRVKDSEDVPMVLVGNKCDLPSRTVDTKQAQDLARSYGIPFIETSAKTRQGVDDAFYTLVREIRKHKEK
GST-tagged KRAS-G12D (2-169), sequence (P01116 2-169 isoform P01116-2 G12D): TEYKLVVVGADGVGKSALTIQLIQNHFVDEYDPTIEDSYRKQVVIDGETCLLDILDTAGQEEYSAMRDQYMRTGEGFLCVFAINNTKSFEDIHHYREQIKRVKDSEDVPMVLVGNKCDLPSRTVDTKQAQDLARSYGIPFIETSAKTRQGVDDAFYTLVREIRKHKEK

On to `CC(c1ccccc1N)N(C)c1nc(OC[C@@]23CCCN2C[C@H](F)C3)nc(N2CC3(CCc4sc(N)c(C#N)c43)C2)n1` (stereo partly drawn) [Compound 121, 2′-amino-1-(4-((1-(2-aminophenyl)ethyl)(methyl)amino)-6-(((2R,7aS)-2-fluorotetrahydro-1H-pyrrolizin-7a(5H)-yl)methoxy)-1,3,5-triazin-2-yl)-5′,6′-dihydrospiro[azetidine-3,4′-cyclopenta[b]thiophene]-3′-carbonitrile], for which the concentration for half-maximal inhibition (IC50) in assay [1] and in assay [2] was no less than 20 µM in each case.
Take `CN(Cc1cnsc1)c1nc(OC[C@@]23CCCN2C[C@H](F)C3)nc(N2CC3(CCc4sc(N)c(C#N)c43)C2)n1` [Compound 147, 2-amino-1′-[4-[[(2R,8S)-2-fluoro-1,2,3,5,6,7-hexahydropyrrolizin-8-yl]methoxy]-6-[isothiazol-4-ylmethyl(methyl)amino]-1,3,5-triazin-2-yl]spiro[5,6-dihydrocyclopenta[b]thiophene-4,3′-azetidine]-3-carbonitrile]: the IC50 in assay [1] lay in the range of 0.1 to 1 µM; in assay [2] it was 0.01 to 0.1 µM.
For `Cc1ccc(C(C)N(C)c2nc(OC[C@@]34CCCN3C[C@H](F)C4)nc(N3CC4(C3)SCc3sc(N)c(C#N)c34)n2)c(N)n1` (stereo partly drawn) [Compound 230, 2′-amino-1-(4-((1-(2-amino-6-methylpyridin-3-yl)ethyl)(methyl)amino)-6-(((2R,7aS)-2-fluorotetrahydro-1H-pyrrolizin-7a(5H)-yl)methoxy)-1,3,5-triazin-2-yl)-6′H-spiro[azetidine-3,4′-thieno[3,4-b]thiophene]-3′-carbonitrile] the same measures were 1 to 20 µM and 1 to 20 µM.
For `N#Cc1c(N)sc2c1C1(CN(c3nc(OCC4(CN5CCOCC5)CC4)nc(N4CCNC[C@H]4CO)n3)C1)SC2` [Compound 186, (S)-2′-amino-1-(4-(2-(hydroxymethyl)piperazin-1-yl)-6-((1-(morpholinomethyl)cyclopropyl)methoxy)-1,3,5-triazin-2-yl)-6′H-spiro[azetidine-3,4′-thieno[3,4-b]thiophene]-3′-carbonitrile], in that order: less than 0.01 µM and 0.01 to 0.1 µM.
For `N#Cc1c(N)sc2c1C1(CN(c3nc(OC[C@@]45CCCN4C[C@H](F)C5)nc(N(Cc4cccnc4N)C4COC4)n3)C1)SC2` [Compound 217, 2-amino-1′-[4-[(2-amino-3-pyridyl)methyl-(oxetan-3-yl)amino]-6-[[(2R,8S)-2-fluoro-1,2,3,5,6,7-hexahydropyrrolizin-8-yl]methoxy]-1,3,5-triazin-2-yl]spiro[6H-thieno[3,4-b]thiophene-4,3′-azetidine]-3-carbonitrile] the same measures were 1 to 20 µM and 0.1 to 1 µM.
`C[C@@]1(O)CCCN(c2nc(OC[C@@]34CCCN3C[C@H](F)C4)nc(N3CC4(C3)c3c(sc(N)c3C#N)CS4(=O)=O)n2)C1` (racemic) [Compound 113, 2-amino-5,5-dioxo-1′-[4-[[rac-(2R,8S)-2-fluoro-1,2,3,5,6,7-hexahydropyrrolizin-8-yl]methoxy]-6-[rac-(3R)-3-hydroxy-3-methyl-1-piperidyl]-1,3,5-triazin-2-yl]spiro[6H-thieno[3,4-b]thiophene-4,3′-azetidine]-3-carbonitrile]: the IC50 in assay [1] and in assay [2] was 0.1 to 1 µM in each case.
For `N#Cc1c(N)sc2c1C1(CC2)CN(c2nc(OC[C@@]34CCCN3C[C@H](F)C4)nc(N(CCO)Cc3cc[nH]n3)n2)C1` [Compound 131, 2-amino-1′-[4-[[(2R,8S)-2-fluoro-1,2,3,5,6,7-hexahydropyrrolizin-8-yl]methoxy]-6-[2-hydroxyethyl(1H-pyrazol-5-ylmethyl)amino]-1,3,5-triazin-2-yl]spiro[5,6-dihydrocyclopenta[b]thiophene-4,3′-azetidine]-3-carbonitrile], the 50% inhibitory concentration (IC50) in assay [1] lay within 0.1 to 1 µM; in assay [2] it was 0.01 to 0.1 µM.
With `CCN(c1nc(OC[C@@]23CCCN2C[C@H](F)C3)nc(N2CC3(C2)c2c(sc(N)c2C#N)CN3CC#N)n1)[C@H](C)c1cccnc1N` [Compound 228, 2-amino-1′-[4-[[(1R)-1-(2-amino-3-pyridyl)ethyl]-ethyl-amino]-6-[[(2R,8S)-2-fluoro-1,2,3,5,6,7-hexahydropyrrolizin-8-yl]methoxy]-1,3,5-triazin-2-yl]-5-(cyanomethyl)spiro[6H-thieno[2,3-c]pyrrole-4,3′-azetidine]-3-carbonitrile], the IC50 in assay [1] fell in the range of 1 to 20 µM; in assay [2] it was 0.1 to 1 µM.
For `CC(=O)CC(=O)N1[C@@H]2CC[C@H]1CN(c1nc(OC[C@@]34CCCN3C[C@H](F)C4)nc(N3CC4(C3)SCc3sc(N)c(C#N)c34)n1)C2` [Compound 145, 2-amino-1′-[4-[[(2R,8S)-2-fluoro-1,2,3,5,6,7-hexahydropyrrolizin-8-yl]methoxy]-6-[(1R,5S)-8-(3-oxobutanoyl)-3,8-diazabicyclo[3.2.1]octan-3-yl]-1,3,5-triazin-2-yl]spiro[6H-thieno[3,4-b]thiophene-4,3′-azetidine]-3-carbonitrile], the 50% inhibitory concentration (IC50) in assay [1] lay in the range of 1 to 20 µM; in assay [2], 0.1 to 1 µM.
Turning to `C[C@@]1(CO)C[C@H](O)CN1c1nc(OC[C@@]23CCCN2C[C@H](F)C3)nc(N2CC3(CCc4sc(N)c(C#N)c43)C2)n1` [Compound 66, 2-amino-1′-[4-[[(2R,8S)-2-fluoro-1,2,3,5,6,7-hexahydropyrrolizin-8-yl]methoxy]-6-[(2S,4S)-4-hydroxy-2-(hydroxymethyl)-2-methyl-pyrrolidin-1-yl]-1,3,5-triazin-2-yl]spiro[5,6-dihydrocyclopenta[b]thiophene-4,3′-azetidine]-3-carbonitrile], the IC50 in assay [1] fell in the range of 0.1 to 1 µM; in assay [2] it was 0.01 to 0.1 µM.
Regarding `CC(=O)N1CCC(N(C)c2nc(OC[C@@]34CCCN3C[C@H](F)C4)nc(N3CC4(C3)SCc3sc(N)c(C#N)c34)n2)C1C` (stereo partly drawn) [Compound 260, 1′-[4-[(1-acetyl-2-methyl-pyrrolidin-3-yl)-methyl-amino]-6-[[(2R,8S)-2-fluoro-1,2,3,5,6,7-hexahydropyrrolizin-8-yl]methoxy]-1,3,5-triazin-2-yl]-2-amino-spiro[6H-thieno[3,4-b]thiophene-4,3′-azetidine]-3-carbonitrile], the IC50 is 0.1 to 1 µM in assay [1] and 0.01 to 0.1 µM in assay [2].
With `COc1ccc(C(C)N(C)c2nc(OC[C@@]34CCCN3C[C@H](F)C4)nc(N3CC4(C3)SCc3sc(N)c(C#N)c34)n2)c(N)n1` (stereo partly drawn) [Compound 233, 2′-amino-1-(4-((1-(2-amino-6-methoxypyridin-3-yl)ethyl)(methyl)amino)-6-(((2R,7aS)-2-fluorotetrahydro-1H-pyrrolizin-7a(5H)-yl)methoxy)-1,3,5-triazin-2-yl)-6′H-spiro[azetidine-3,4′-thieno[3,4-b]thiophene]-3′-carbonitrile], the results for the half-maximal inhibitory concentration (IC50) in assay [1] and in assay [2] were 1 to 20 µM and 0.1 to 1 µM, respectively.
With `N#Cc1c(N)sc2c1C1(CN(c3nc(OC[C@@]45CCCN4C[C@H](F)C5)nc(N4C5CCC4COC5)n3)C1)SC2` (racemic) [Compound 274, 2-amino-1′-[4-(3-oxa-8-azabicyclo[3.2.1]octan-8-yl)-6-[[rac-(2R,8S)-2-fluoro-1,2,3,5,6,7-hexahydropyrrolizin-8-yl]methoxy]-1,3,5-triazin-2-yl]spiro[6H-thieno[3,4-b]thiophene-4,3′-azetidine]-3-carbonitrile], the figures for the IC50 in assay [1] and in assay [2] were 0.1 to 1 µM and 0.01 to 0.1 µM, respectively.
For `N#Cc1c(N)sc2c1C1(CC2)CN(c2nc(OC[C@@]34CCCN3C[C@H](F)C4)nc(N(CCO)Cc3c[nH]nc3Cl)n2)C1` [Compound 151, 2-amino-1′-[4-[(3-chloro-1H-pyrazol-4-yl)methyl-(2-hydroxyethyl)amino]-6-[[(2R,8S)-2-fluoro-1,2,3,5,6,7-hexahydropyrrolizin-8-yl]methoxy]-1,3,5-triazin-2-yl]spiro[5,6-dihydrocyclopenta[b]thiophene-4,3′-azetidine]-3-carbonitrile] the same measures were 1 to 20 µM and 0.1 to 1 µM.
For `CC(c1cncnc1O)N(C)c1nc(OC[C@@]23CCCN2C[C@H](F)C3)nc(N2CC3(CCc4sc(N)c(C#N)c43)C2)n1` (stereo partly drawn) [Compound 155, 2-amino-1′-[4-[[(2R,8S)-2-fluoro-1,2,3,5,6,7-hexahydropyrrolizin-8-yl]methoxy]-6-[1-(4-hydroxypyrimidin-5-yl)ethyl-methyl-amino]-1,3,5-triazin-2-yl]spiro[5,6-dihydrocyclopenta[b]thiophene-4,3′-azetidine]-3-carbonitrile], the IC50 in assay [1] and in assay [2] was 1 to 20 µM throughout.
